Reference: patent publication US8957106B2, “Iminosugar treatment of tumors” (The Chancellor, Masters and Scholars of the University of …, priority 2007, dated 2015)

Tests used:
[1] = tested on: MMP-2 secreted by T11 glioblastoma multiform cells; experiment: MMP analysis by SDS-PAGE gelatin zymography; format: cell-based; conditions: 20 h
Description: T11 cells were grown in a complete DMEM medium until they reached 80% confluency. The cells were washed using DMEM medium without serum and incubated for 20 h with various concentrations of GC2 shown in preliminary experiments not to affect cell viability. The culture medium was collected, centrifuged at 2000 rpm, for 5 min, to remove the cells in suspension. The culture medium was further concentrated five times by ultrafiltration on centricon membranes (molecular weight cut off 30,000 from Milipore). Three parts of medium containing equal amounts of protein (20 μg) were mixed with one part of Laemmnli buffer without reducing agent. Samples were applied on a gel of 8% polyacrylamide impregnated with 0.5 mg/ml denaturated type I collagen (gelatin) and separated electrophoretically. […]
To investigate if GC2 treatment interferes with secretion of MMPs a glioblastoma multiform cell line, T11 previously tested for its capacity to secrete MMP-2 was used. Cells were cultured for 20 h in the presence of different concentrations of GC2, established by preliminary experiments to be nontoxic for this cell line, and medium was concentrated and analyzed by Sodium Dodecyl Sulphate PolyAcrylamide Gel Electrophoresis (SDS-PAGE) gelatin zymography. […]

MelJuSo cells = experiment: Cell cycle distribution analysis (PI, flow cytometry), MelJuSo; format: cell-based, human; conditions: 6 μM, 24 h
Description: Cell cycle analysis in melanoma cells treated with GC2 was performed by determining DNA content using propidium iodide (PI) staining. PI intercalates into the major groove of double stranded DNA and produces a highly fluorescent adduct that can be excited at 488 nm and with a broad emission centered at 600 nm, see e.g. Krishan A. J. Cell. Biol. 66, 188, 1975. Melanoma cells (20×10^4) were cultured in 25 cm^2 tissue culture flasks for 24 h, followed by a further incubation for indicated time periods with 6 μM GC2. After treatment, adherent cells were trypsinized and a number of viable cells was determined by trypan blue exclusion. […] cells were re-suspended in 200 μl FACS buffer (2% FCS in PBS) and fixed with 600 μl absolute methanol, dropwise added under gentle vortexing, for at least 2 h at −20° C. Fixed cells were washed with FACS buffer, centrifuged for 5 min at 1500 rpm, at 4° C., and incubated for 30 min, in the dark, at room temperature (RT) with 200 μl PI staining solution in 3.8 mM sodium citrate (10 μl RNaze 10 μg/ml previously boiled for 5 min and 1 μl PI 10 mg/ml). The staining solution was removed by centrifugation and the cell pellet was re-suspended in 200 μl FACS buffer. Samples were analyzed for DNA content using a FACScan™ using CellQuest™ software (Becton Dickinson, San Jose, Calif.). […]

MNT-1 cells = experiment: Annexin V/PI double labeling, flow cytometry, MNT-1; format: cell-based; conditions: MNT-1, 6 μM
Description: Apoptosis in GC2-treated melanoma cells was detected using Annexin V and PI double labeling assay, see van Engeland, M., et al., Cytometry, 31, 1-9, 1998. Annexin V/PI labeling was applied to both fluorescence microscopy and flow cytometry following the protocol supplied by the manufacturer. Briefly, for fluorescence microscopy analysis adherent cells (approximately 16×10^4) treated with GC2 were washed with annexin V binding buffer, and incubated with Alexa Fluor® 488 Annexin V (5 μl in 1 ml annexin V binding buffer) for 15 min at RT, in the dark, to which 0.2 μg PI was added. Live cells were washed with annexin V binding buffer and examined by microscopy. For flow cytometric analysis, cells treated with GC2 were harvested by trypsinisation and a number of viable cells was counted. 16×10^4 cells were re-suspended in 0.2 ml annexin V binding buffer and treated in the same were adherent cells. Finally, labeled cells were analyzed with a FACScan™ using CellQuest™ software (Becton Dickinson, San Jose, Calif.).
Cells cultured under normal conditions for 24 h were further treated for 5 h, 8 h or 24 h with 6 μM of GC2, labeled with annexin V and PI and quantitatively analyzed by flow cytometry for viable, apoptotic and necrotic populations (FIG. 7).

SMILES: CC(=O)O.CCCCCCCCCN1[C@@H](CO)[C@@H](O)[C@H](O)[C@@H]1CCCCCCCC [GC2, (2S,3R,4R,5S)-3,4-dihydroxy-N-nonyl-5-octyl-2 hydroxymethylpyrrolidinium acetate]
- intensity of the MMP-2 band ([1]; 0.65 μM, 1.25 μM, 2.5 μM and 5 μM): decreasing in a concentration dependent manner
- MMP-2 secretion ([1]; 5 μM): total inhibition
- number of cells in G2 phase (MelJuSo cells; untreated 17.7%): 8.48%
- proportion of surviving cells in G0/G1 phase (MelJuSo cells; untreated 51.20%): 60.00%
- increase of apoptotic population versus control (MNT-1 cells; 5 h): doubled
- increase of necrotic fraction versus control (factor) (MNT-1 cells; 5 h): 2.3
- apoptotic population (MNT-1 cells; 5 h, control 3.29%): 6.94%
- necrotic fraction (MNT-1 cells; 5 h, control 4.24%): 10.07%
- increase of apoptotic population versus control (times) (MNT-1 cells; 8 h): 3.5
- increase of necrotic fraction versus control (factor) (MNT-1 cells; 8 h): 2.9
- apoptotic population (MNT-1 cells; 8 h, control 4.32%): 15.49%
- necrotic fraction (MNT-1 cells; 8 h, control 5.84%): 17.25%
- increase of apoptotic population versus control (times) (MNT-1 cells; 24 h): 7.6
- increase of necrotic fraction versus control (factor) (MNT-1 cells; 24 h): 9.5
- necrotic fraction (MNT-1 cells; 24 h, control 2.07%): 19.18%
- apoptotic population (MNT-1 cells; 24 h, control 3.25%): 24.86%
